These results are taken from patent US20150353928A1, “Genes Contributing to Survival of Cancer Cells” (Georgetown University, priority 2011, published 2015).

One experiment deals with LCC1 cells. Briefly: Bortezomib concentration response, Cell Titer Blue viability. The format is cell-based. The note with it: 2.5 nM-2.5 μM. The procedure:
(§1) LCC1, LCC9 and MCF7 cells were seeded at density so that the untreated condition was at 80% confluence on day 7 in the appropriate medium. Cells were incubated at 37° C. and 5% CO2 for […]. Twenty-four hours later, cells were treated with Bortezomib with final well concentrations ranging from 2.5 nM-2.5 μM. On the seventh day, 20 μL of 1:1 mixture of Cell Titer Blue (CTB) from Promega and Hank's Buffered Salt Solution (HBSS) was added to each well and incubated for another 4 hours before reading out the results using the EnVision Multilabel Plate Reader from PerkinElmer. Viability was calculated as a percentage of the untreated cells.
For orientation: The colour change of resazurin is a common sign of viable cells or microbes.

The test system of a further experiment is LCC9 cells. Described as above. The format is cell-based. Conditions: 2.5 nM-2.5 μM. The protocol: as §1

`CC(C)C[C@H](NC(=O)[C@H](Cc1ccccc1)NC(=O)c1cnccn1)B(O)O` [Bortezomib]: the “sensitivity to bortezomib compared to MCF7 (concentration response curves)” value in the experiment with LCC1 cells and in the experiment on LCC9 cells was “more sensitive” each time.
